Results on 34 compounds are retold here after ChEMBL document CHEMBL1140635, “Computational modeling tools for the design of potent antimalarial bisbenzamidines: overcoming the antimalarial potential of pentamidine” (Bioorg Med Chem, 2007).

Broadly, the IC50 is the concentration that gives 50% inhibition. A high value points to lower potency.

Each structure is given as a SMILES string.

The assay has as its system Plasmodium falciparum. As to the kind of experiment: Antiplasmodial activity against chloroquine-sensitive Plasmodium falciparum D6 by LDH reporter assay. In kind it is functional, organism-based. On the technique in general: Reporter assays use an easily measured gene product as a stand-in for the process of interest.
Regarding `N=C(NC1CCCCCC1)c1ccc(N2CCN(c3ccc(C(=N)NC4CCCCCC4)cc3)CC2)cc1`, the IC50 turned out to be 36 nM.
For `N=C(N)c1ccc(OCCCCCOc2ccc(C(=N)N)cc2)cc1` [PENTAMIDINE] the value was 278 nM.
`N=C(NC1CC1)c1ccc(N2CCN(c3ccc(C(=N)NC4CC4)cc3)CC2)cc1` had an IC50 of 358 nM.
The compound `c1cc(N2CCCN(c3ccc(C4=NCCCN4)cc3)CC2)ccc1C1=NCCCN1` gave an IC50 of 5110 nM.
`N=C(N)c1ccc(OCc2cccc(COc3ccc(C(=N)N)cc3)c2)cc1` registered a 50% inhibitory concentration (IC50) of 85 nM. This IC50 is about 60-fold lower than that of the compound before.
In the case of `CCCCNC(=N)c1ccc(N2CCCN(c3ccc(C(=N)NCCCC)cc3)CC2)cc1` it was 18 nM.
For `CC(C)CCNC(=N)c1ccc(N2CCN(c3ccc(C(=N)NCCC(C)C)cc3)CC2)cc1` the value was 42 nM; for `CCC(C)CNC(=N)c1ccc(N2CCN(c3ccc(C(=N)NCC(C)CC)cc3)CC2)cc1` (centres undefined), 69 nM.
`CNC(=N)c1ccc(N2CCN(c3ccc(C(=N)NC)cc3)CC2)cc1` returned a half-inhibitory concentration (IC50) of 862 nM.
For `CCCCCCCCCCNC(=N)c1ccc(N2CCN(c3ccc(C(=N)NCCCCCCCCCC)cc3)CC2)cc1` the value was 75 nM; for `N=C(N)c1ccc(NC(=O)CCCCC(=O)Nc2ccc(C(=N)N)cc2)cc1`, 640 nM.
For `N=C(N)c1ccc(N2CCCN(c3ccc(C(=N)N)cc3)CC2)cc1` the value was 1600 nM.
In the case of `c1cc(C2=NCCN2)ccc1CC1CCN(c2ccc(C3=NCCN3)cc2)CC1`, the IC50 came to 402 nM.
In the case of `N=C(NC1CCC1)c1ccc(N2CCN(c3ccc(C(=N)NC4CCC4)cc3)CC2)cc1` it was 7 nM; in that of `N=C(N)c1ccc(OCc2ccc(COc3ccc(C(=N)N)cc3)cc2)cc1`, 114 nM.
Turning to `CCCCCCCNC(=N)c1ccc(N2CCN(c3ccc(C(=N)NCCCCCCC)cc3)CC2)cc1`, half-maximal inhibition (IC50) was put at 48 nM. This IC50 lies about 2.4-fold lower than the previous one.
For `c1cc(N2CCCN(c3ccc(C4=NCCN4)cc3)CC2)ccc1C1=NCCN1` the value was 148 nM; for `C(=C1CCN(c2ccc(C3=NCCN3)cc2)CC1)c1ccc(C2=NCCN2)cc1`, 840 nM.
Consider `N=C(NC1CCCCCCC1)c1ccc(N2CCN(c3ccc(C(=N)NC4CCCCCCC4)cc3)CC2)cc1`, for which inhibition was half-maximal at 55 nM (IC50).
In the case of `c1cc(N2CCN(c3ccc(C4=NCCN4)cc3)CC2)ccc1C1=NCCN1` it was 89 nM; in that of `CCNC(=N)c1ccc(N2CCN(c3ccc(C(=N)NCC)cc3)CC2)cc1`, 124 nM; in that of `N=C(NO)c1ccc(N2CCN(c3ccc(C(=N)NO)cc3)CC2)cc1`, 8320 nM.
In the case of `N=C(NCCCO)c1ccc(N2CCN(c3ccc(C(=N)NCCCO)cc3)CC2)cc1` it was 8800 nM; in that of `c1cc(N2CCN(c3ccc(C4=NCCCN4)cc3)CC2)ccc1C1=NCCCN1`, 106 nM.
`CCCCCCCCNC(=N)c1ccc(N2CCN(c3ccc(C(=N)NCCCCCCCC)cc3)CC2)cc1`: the concentration for half-maximal inhibition (IC50) is 138 nM.
For `c1ccc2[nH]c(-c3ccc(N4CCN(c5ccc(-c6nc7ccccc7[nH]6)cc5)CC4)cc3)nc2c1` the value was 4880 nM; for `CCCCCNC(=N)c1ccc(N2CCN(c3ccc(C(=N)NCCCCC)cc3)CC2)cc1`, 21 nM.
In the case of `CCCCCCNC(=N)c1ccc(N2CCN(c3ccc(C(=N)NCCCCCC)cc3)CC2)cc1` it was 35 nM; in that of `N=C(NC1CC1)c1ccc(N2CCCN(c3ccc(C(=N)NC4CC4)cc3)CC2)cc1`, 306 nM.
For `CCCCCCCCCNC(=N)c1ccc(N2CCN(c3ccc(C(=N)NCCCCCCCCC)cc3)CC2)cc1` the value was 88 nM; for `N=C(N)c1ccc(COc2ccccc2OCc2ccc(C(=N)N)cc2)cc1`, 671 nM.
Take `CCCCCCCCCCCCNC(=N)c1ccc(N2CCN(c3ccc(C(=N)NCCCCCCCCCCCC)cc3)CC2)cc1`: 3890 nM corresponded to half-maximal inhibition (IC50).
For `N=C(N)c1ccc(OCc2ccccc2COc2ccc(C(=N)N)cc2)cc1` the value was 313 nM; for `CCCNC(=N)c1ccc(N2CCN(c3ccc(C(=N)NCCC)cc3)CC2)cc1`, 29 nM.
